# Measurements published in PubChem BioAssay (NCI).
#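 Interpolation was linear, between the two tested concentrations surrounding the appropriate level; five concentrations were tested over 48 hours in 96-well plates. GI50 = concentration required for 50% inhibition of growth. TGI marks complete inhibition of growth.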
# Columns and labels:
# Assay in all cases: inhibition of tumour cell growth, NCI panel, 48 h
# [1] = test system: SK-OV-3 ovarian
# [2] = test system: HS 578T breast
# [3] = test system: BT-549 breast
# [4] = test system: RPMI-8226 leukemia
# [5] = test system: HCT-116 colon
# [6] = test system: MDA-MB-231 breast
# [7] = test system: 786-0 renal
# [8] = test system: SF-539 CNS
# [9] = test system: MOLT-4 leukemia
# [10] = test system: NCI-H522 lung
# [11] = test system: TK-10 renal
# [12] = test system: SF-295 CNS
# [13] = test system: UO-31 renal
# [14] = test system: U251 CNS
# [15] = test system: HL-60(TB) leukemia
# [16] = test system: MCF7 breast
# [17] = test system: HCC-2998 colon
# [18] = test system: SNB-75 CNS
# [19] = test system: T-47D breast
# [20] = test system: IGROV1 ovarian
# [21] = test system: NCI/ADR-RES ovarian
# [22] = test system: OVCAR-5 ovarian
# [23] = test system: HOP-92 NSCLC
# [24] = test system: SNB-19 CNS
# [25] = test system: COLO 205 colon
# [26] = test system: SK-MEL-5 melanoma
# [27] = test system: SF-268 CNS
# [28] = test system: SK-MEL-2 melanoma
# [29] = test system: OVCAR-8 ovarian
# [30] = test system: SK-MEL-28 melanoma
# [31] = test system: CAKI-1 renal
# [32] = test system: DU-145 prostate
# [33] = test system: MALME-3M melanoma
# [34] = test system: LOX IMVI melanoma
# [35] = test system: NCI-H226 lung
# [36] = test system: CCRF-CEM leukemia
# [37] = test system: RXF 393 renal
# [38] = test system: PC-3 prostate
# [39] = test system: SW-620 colon
# [40] = test system: HOP-62 NSCLC
# [41] = test system: SR leukemia
# [42] = test system: NCI-H460 lung
# [43] = test system: OVCAR-3 ovarian
# [44] = test system: HCT-15 colon
# [45] = test system: K-562 leukemia
# [46] = test system: A498 renal
# [47] = test system: SN12C renal
# [48] = test system: MDA-MB-435
# [49] = test system: UACC-62 melanoma
# [50] = test system: HT29 colon
# [51] = test system: ACHN renal
structure (smiles),measurement,setting,value
N=C1S/C(=C/c2ccc(-c3ccc4c(c3)C(=O)NC4=O)o2)C(=O)N1c1ccc(Br)cc1,GI50,[1],6190 nM
same,TGI,[1],> 100000 nM
same,GI50,[2],7500 nM
same,TGI,[2],> 100000 nM
same,GI50,[3],4310 nM
same,TGI,[3],56000 nM
same,GI50,[4],4200 nM
same,TGI,[4],> 100000 nM
same,GI50,[5],3650 nM
same,TGI,[5],> 100000 nM
same,GI50,[6],4210 nM
same,TGI,[6],> 100000 nM
same,GI50,[7],3450 nM
same,TGI,[7],> 100000 nM
same,GI50,[8],> 100000 nM
same,TGI,[8],> 100000 nM
same,GI50,[9],> 100000 nM
same,TGI,[9],> 100000 nM
same,GI50,[10],3630 nM
same,TGI,[10],> 100000 nM
same,GI50,[11],3320 nM
same,TGI,[11],> 100000 nM
same,GI50,[12],2960 nM
same,TGI,[12],8950 nM
same,GI50,[13],> 100000 nM
same,TGI,[13],> 100000 nM
same,GI50,[14],2910 nM
same,TGI,[14],8230 nM
same,GI50,[15],> 100000 nM
same,TGI,[15],> 100000 nM
same,GI50,[16],3680 nM
same,TGI,[16],> 100000 nM
same,GI50,[17],> 100000 nM
same,TGI,[17],> 100000 nM
same,GI50,[18],2170 nM
same,TGI,[18],6760 nM
same,GI50,[19],2920 nM
same,TGI,[19],> 100000 nM
same,GI50,[20],15900 nM
same,TGI,[20],> 100000 nM
same,GI50,[21],> 100000 nM
same,TGI,[21],> 100000 nM
same,GI50,[22],> 100000 nM
same,TGI,[22],> 100000 nM
same,GI50,[23],1810 nM
same,TGI,[23],8560 nM
same,GI50,[24],> 100000 nM
same,TGI,[24],> 100000 nM
same,GI50,[25],> 100000 nM
same,TGI,[25],> 100000 nM
same,GI50,[26],3480 nM
same,TGI,[26],> 100000 nM
same,GI50,[27],6300 nM
same,TGI,[27],> 100000 nM
same,GI50,[28],11700 nM
same,TGI,[28],41800 nM
Cc1nc2ccccc2c(/C=C/c2ccc(Cl)cc2)c1C(=O)/C=C/c1ccc(F)cc1,GI50,[29],1620 nM
same,TGI,[29],4160 nM
same,GI50,[30],1810 nM
same,TGI,[30],3350 nM
same,GI50,[31],1110 nM
same,TGI,[31],2310 nM
same,GI50,[2],2170 nM
same,TGI,[2],5940 nM
same,GI50,[4],1370 nM
same,TGI,[4],4480 nM
same,GI50,[32],1680 nM
same,TGI,[32],3650 nM
same,GI50,[33],1640 nM
same,TGI,[33],3010 nM
same,GI50,[5],531 nM
same,TGI,[5],2140 nM
same,GI50,[6],1920 nM
same,TGI,[6],4770 nM
same,GI50,[34],1320 nM
same,TGI,[34],2610 nM
same,GI50,[7],1780 nM
same,TGI,[7],3480 nM
same,GI50,[8],1760 nM
same,TGI,[8],3250 nM
same,GI50,[35],1680 nM
same,TGI,[35],3570 nM
same,GI50,[9],1190 nM
same,TGI,[9],7200 nM
same,GI50,[10],1440 nM
same,TGI,[10],4040 nM
same,GI50,[12],1750 nM
same,TGI,[12],3220 nM
same,GI50,[13],1150 nM
same,TGI,[13],2360 nM
same,GI50,[14],1440 nM
same,TGI,[14],2920 nM
same,GI50,[36],1260 nM
same,TGI,[36],> 100000 nM
same,GI50,[37],1660 nM
same,TGI,[37],3160 nM
same,GI50,[38],1600 nM
same,TGI,[38],3710 nM
same,GI50,[15],1570 nM
same,TGI,[15],4130 nM
same,GI50,[16],781 nM
same,TGI,[16],4320 nM
same,GI50,[17],1530 nM
same,TGI,[17],3010 nM
same,GI50,[18],1160 nM
same,TGI,[18],2370 nM
same,GI50,[19],1100 nM
same,TGI,[19],2860 nM
same,GI50,[20],1150 nM
same,TGI,[20],2690 nM
same,GI50,[39],1420 nM
same,TGI,[39],3430 nM
same,GI50,[21],1850 nM
same,TGI,[21],4110 nM
same,GI50,[40],1890 nM
same,TGI,[40],3710 nM
same,GI50,[41],704 nM
same,TGI,[41],5470 nM
same,GI50,[22],1630 nM
same,TGI,[22],3490 nM
same,GI50,[23],1190 nM
same,TGI,[23],2890 nM
same,GI50,[24],1540 nM
same,TGI,[24],2890 nM
same,GI50,[25],2080 nM
same,TGI,[25],4910 nM
same,GI50,[42],1390 nM
same,TGI,[42],2850 nM
same,GI50,[43],1460 nM
same,TGI,[43],2800 nM
same,GI50,[26],1620 nM
same,TGI,[26],2970 nM
same,GI50,[44],1060 nM
same,TGI,[44],2910 nM
same,GI50,[27],1520 nM
same,TGI,[27],3040 nM
same,GI50,[45],1200 nM
same,TGI,[45],> 100000 nM
same,GI50,[28],1870 nM
same,TGI,[28],3790 nM
same,GI50,[46],1790 nM
same,TGI,[46],3220 nM
same,GI50,[47],1810 nM
same,TGI,[47],4070 nM
same,GI50,[48],1550 nM
same,TGI,[48],3210 nM
same,GI50,[49],1490 nM
same,TGI,[49],2910 nM
same,GI50,[50],1210 nM
same,TGI,[50],7540 nM
same,GI50,[51],1510 nM
same,TGI,[51],2830 nM
